The assay relates to parental melanoma. The assay is described as follows: Immune infiltrates (immunofluorescence, flow cytometry) in parental melanomas and draining lymph nodes. It counts as in vivo, mouse. On the procedure:
Immunohistochemical analyses. Mouse tumors were collected 5 days after treatment initiation and formalin-fixed paraffin-embedded (FFPE). Slides were baked for 60 minutes in a 60° C. oven and loaded into the Bond III™ staining platform. Slides were antigen retrieved in Bond™ Epitope Retrieval 1 for 30 minutes at 100° C. then incubated with CD3 (Abcam™, ab16669) at 1:150 diluted in Bond™ Primary Antibody diluent for 30 minutes at room temperature. Primary antibody was detected using Bond™ Polymer Refine Detection kit, slides were developed in DAB, then dehydrated and coverslipped. For each of 3 samples per group, 3 random 20× magnification fields were chosen at the tumor center for quantification. The open-source CellProfiler™ cell image analysis software3 was used to quantify positively stained cells in each image. The analysis pipeline utilized the UnmixColors module to separate each image into one of the Hematoxylin stain and one of the DAB stain. The EnhanceOrSuppressFeatures module was applied to the DAB image to enhance cellular features. Finally, the IdentifyPrimaryObjects module was used to count the number of cells present in the enhanced image.
Immunofluorescence analyses. […]
Flow cytometry. […] Flow cytometry data were acquired on the BD™ LSRII flow cytometer and analyzed using FlowJo™ software (Tree Star™).

As for `CC(C)Cn1cnc2c(N)nc3ccccc3c21` [imiquimod], the “PD-L2 expression on CD11c+ dendritic cells” value (draining lymph nodes, parental melanoma-bearing mice) is “reduced”. Besides, for the setting “parental melanomas, imiquimod alone or with anti-PD-1 or aFP”, the “granzyme B+ fraction of CD8+ TILs” value is “expanded”.

The values are drawn from patent publication US20180311505A1, “METHODS FOR TREATING CANCER BY ENHANCING INTRATUMORAL IMMUNE RESPONSE” (THE GENERAL HOSPITAL CORPORATION, priority 2015, published 2018).
